Laboratory results reported in patent US20230010886A1 (SUZHOU PUHE BIOPHARMA CO., LTD., priority 2019, published 2023).
pIC50: −log10 of the molar value.

How the values were obtained:
Full length SHP2 enzyme = biological target: T1, Full length SHP2 enzyme (Homo sapiens, UniProt Q06124); test: SHP2 phosphatase assay; assay type: biochemical; details: 1 μM IRS-1 peptide, DiFMUP substrate
T1 construct: Full length SHP2 enzyme (diluted to 0.1 nM in reaction buffer)
T1 sequence (Q06124 1-593): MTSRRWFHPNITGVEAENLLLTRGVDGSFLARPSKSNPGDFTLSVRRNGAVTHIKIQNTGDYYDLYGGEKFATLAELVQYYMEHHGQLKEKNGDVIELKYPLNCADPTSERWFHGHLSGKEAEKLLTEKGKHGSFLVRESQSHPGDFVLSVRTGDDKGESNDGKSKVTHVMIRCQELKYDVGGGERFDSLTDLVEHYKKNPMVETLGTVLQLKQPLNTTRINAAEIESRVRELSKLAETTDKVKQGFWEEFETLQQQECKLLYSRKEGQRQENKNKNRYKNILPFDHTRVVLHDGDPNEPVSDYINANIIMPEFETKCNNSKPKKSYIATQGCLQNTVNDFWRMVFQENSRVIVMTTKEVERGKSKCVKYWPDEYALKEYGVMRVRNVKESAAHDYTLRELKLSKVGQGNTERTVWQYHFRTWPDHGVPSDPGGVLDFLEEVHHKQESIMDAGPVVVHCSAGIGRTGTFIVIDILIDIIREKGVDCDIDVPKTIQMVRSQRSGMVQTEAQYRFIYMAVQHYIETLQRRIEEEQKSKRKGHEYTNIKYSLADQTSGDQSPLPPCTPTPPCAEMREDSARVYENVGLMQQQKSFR
Method: IC50 values were determined at room temperature in 384-well black polystyrene plate, using a final reaction volume of 15 μL and the following assay buffer conditions: 60 mM Hepes (pH=7.2), 75 mM NaCl, 75 mM KCl, and 1 mM EDTA, 0.05% P-20, 5 mM dithiothreitol (DTT). Full length SHP2 enzyme (diluted to 0.1 nM in reaction buffer) were co-incubated with 1 μM IRS-1 peptide and 0.01 nM to 10 μM compounds of the disclosure for 60 min. The surrogate substrate DiFMUP (5 μL, 100 μM) was added, and incubated at rt for 60 min. The reaction was then quenched by the addition of 5 μL of a 40 μM solution of bpV(Phen). The fluorescence signal was monitored using a microplate reader (Envision, Perkin-Elmer) using excitation and emission wavelengths of 360 nm and 450 nm, respectively. The inhibitor dose-response curves were analyzed using normalized IC50 regression curve fitting with control-based normalization.

KYSE-520 cell line = test: Cell proliferation assay (CellTiter Glo), KYSE-520; assay type: cell-based; details: Homo sapiens, 3-5 days
Method: Firstly, the cells were seeded in 384-well cell culture plate and incubate overnight. The test compounds were added to the cell plate and incubated for 3-5 days. The cell plate was then detected using CellTiter Glo reagents.

KYSE-520 cells = test: Esophageal KYSE-520 xenograft model; assay type: in vivo, BALB/c nude mice; details: oral 30 mg/kg per day, once a day for 4 weeks, mice
Method: (§1) KYSE-520 cells were expanded in culture, harvested and injected subcutaneously into 6-8 weeks old female BALB/c nude mice (5×10^6 cell/each mouse, supplemented with Matrigel (1:1) for tumor development, n=9 per group). Subsequent administration of a compound by oral gavage started when the mean tumor size reached approximately 150-200 mm^3. During the treatment (once a day for 4 weeks), the tumor volumes were measured using a caliper. Statistical analysis of difference in tumor volume among the groups were evaluated using a one-way ANOVA. Vehicle alone was the negative control.

Mai-Pa-ca-2 cells = test: Pancreatic cancer Mia-Pa-Ca-2 xenograft studies; assay type: in vivo, BALB/c nude mice
Method: as §1, with “Mai-Pa-ca-2” for “KYSE-520”, “21 days),” for “4 weeks),”

NCI-H358 cells = test: Combination treatment of a SHP2 inhibitor with other therapeutic agents, NSCLC with KRAS mutant xenograft; assay type: in vivo, BALB/c nude mice; details: 10 mg/kg per day combined with CDK4/6 inhibitor SYB-020097 (30 mg/kg per day), oral once daily for 28 days, mice
Method: as §1, with “NCI-H358” for “KYSE-520”, “compound or combination of compounds” for “compound”

Row | SMILES | pIC50 (Full length SHP2 enzyme) | pIC50 (KYSE-520 cell line) | further results
1 | NC1COCC12CCN(c1ncc(Sc3cccc(Cl)c3Cl)[nH]c1=O)CC2 (stereo not shown) [Example 10, 3-(4-amino-2-oxa-8-azaspiro[4.5]decan-8-yl)-6-((2,3-dichlorophenyl)thio)pyrazin-2 (1H)-one] | – | > 5.30 | –
2 | C[C@@H]1OCC2(CCN(c3ncc(Sc4cccc(Cl)c4Cl)[nH]c3=O)CC2)[C@@H]1N | – | – | anti-tumor activity compared with reference compound (KYSE-520 cells): superior anti-tumor activities than reference compound RMC-4550; tumor growth inhibition (KYSE-520 cells): more than 90%; reduction of tumor growth, combination vs each compound alone (Mai-Pa-ca-2 cells; 30 mg/kg per day co-administered with CDK4/6 inhibitor SYB-020097 (50 mg/kg per day)): significantly higher reduction of tumor growth; reduction of tumor growth, combination vs each compound alone (Mai-Pa-ca-2 cells; 30 mg/kg per day co-administered with MEK inhibitor SYB-020099 (1 mg/kg per day)): significantly higher reduction of tumor growth; improvement of combination over monotherapy (NCI-H358 cells): more than 50%
3 | COc1ccc2c(c1)CC1(CCN(c3ncc(Sc4cccc(Cl)c4Cl)[nH]c3=O)CC1)[C@@H]2N [Example 131, (S)-3-(1-amino-5-methoxy-1,3-dihydrospiro[indene-2,4′-piperidin]-1′-yl)-6-((2,3-dichlorophenyl)thio)pyrazin-2 (1H)-one] | ≥ 7.30 | – | –
4 | Nc1nccc(Sc2cnc(N3CCC4(CCC[C@@H]4N)CC3)c(=O)[nH]2)c1Cl [Example 133, (S)-6-((2-amino-3-chloropyridin-4-yl)thio)-3-(1-amino-8-azaspiro[4.5]decan-8-yl)pyrazin-2(1H)-one] | ≥ 7.30 | – | –
5 | C[C@@H]1OCC2(CCN(c3ncc(Sc4ccnc(Cl)c4Cl)[nH]c3=O)CC2)[C@@H]1N [Example 81, 3-((3S,4S)-4-amino-3-methyl-2-oxa-8-azaspiro[4.5]decan-8-yl)-6-((2,3-dichloropyridin-4-yl)thio)pyrazin-2(1H)-one] | ≥ 7.30 | > 6.00 | –

Continued, in another order:

Row | pIC50 (Full length SHP2 enzyme) | SMILES | pIC50 (KYSE-520 cell line) | further results
6 | ≥ 7.30 | CC1(CN)CCN(c2ncc(Sc3cccc(NC(=O)c4c(O)nc5sccn5c4=O)c3Cl)[nH]c2=O)CC1 [Example 31, N-(3-((5-(4-(aminomethyl)-4-methylpiperidin-1-yl)-6-oxo-1,6-dihydropyrazin-2-yl)thio)-2-chlorophenyl)-7-hydroxy-5-oxo-5H-thiazolo[3,2-a]pyrimidine-6-carboxamide] | > 5.30 | –
7 | ≥ 7.30 | C[C@@H]1OCC2(CCN(c3ncc(Sc4cccc(F)c4Cl)[nH]c3=O)CC2)[C@@H]1N [Example 109, 3-((3S,4S)-4-amino-3-methyl-2-oxa-8-azaspiro[4.5]decan-8-yl)-6-((2-chloro-3-fluorophenyl)thio)pyrazin-2(1H)-one] | > 5.30 | –
8 | ≥ 7.30 | C[C@@H]1OCC2(CCN(c3ncc(Sc4ccnc(F)c4F)[nH]c3=O)CC2)[C@@H]1N [Example 84] | > 6.00 | –
9 | ≥ 7.30 | N[C@@H]1COCC12CCN(c1ncc(Sc3cccc(Cl)c3Cl)[nH]c1=O)CC2 [Example 73, (S)-3-(4-amino-2-oxa-8-azaspiro[4.5]decan-8-yl)-6-((2,3-dichlorophenyl)thio)pyrazin-2 (1H)-one] | > 5.30 | –
10 | ≥ 7.30 | C[C@@H]1OCC2(CCN(c3ncc(Sc4ccnc(F)c4Cl)[nH]c3=O)CC2)[C@@H]1N [Example 83, 3-((3S,4S)-4-amino-3-methyl-2-oxa-8-azaspiro[4.5]decan-8-yl)-6-((3-chloro-2-fluoropyridin-4-yl)thio)pyrazin-2(1H)-one] | > 6.00 | –
11 | ≥ 7.30 | CC1(CN)CCN(c2ncc(Sc3cccc(NC(=O)c4c(O)nc5ccccn5c4=O)c3Cl)[nH]c2=O)CC1 [Example 29, N-(3-((5-(4-(aminomethyl)-4-methylpiperidin-1-yl)-6-oxo-1,6-dihydropyrazin-2-yl)thio)-2-chlorophenyl)-2-hydroxy-4-oxo-4H-pyrido[1,2-a]pyrimidine-3-carboxamide] | > 5.30 | –
12 | ≥ 7.30 | C[C@@H]1OCC2(CCN(c3ncc(Sc4cccc(F)c4F)[nH]c3=O)CC2)[C@@H]1N [Example 82, 3-((3S,4S)-4-amino-3-methyl-2-oxa-8-azaspiro[4.5]decan-8-yl)-6-((2,3-difluorophenyl)thio)pyrazin-2(1H)-one] | > 5.30 | –
13 | ≥ 7.30 | COc1cccc(Sc2cnc(N3CCC4(CC3)CO[C@@H](C)[C@H]4N)c(=O)[nH]2)c1Cl [Example 79, 3-((3S,4S)-4-amino-3-methyl-2-oxa-8-azaspiro[4.5]decan-8-yl)-6-((2-chloro-3-methoxyphenyl)thio)pyrazin-2 (1H)-one] | – | –
